Experimental data as given in patent US4051237A, “Glycopeptide antibiotics Bu-2231 A and B and process for producing same” (priority 1975, dated 1977).
In brackets after ≈: the same amount, converted by molar mass. Read-outs that look alike come from different tables or passages of the source.

Key:
E. coli NIHJ [1] = assay: In vivo activity in experimental mice infection
Experimental: (§1) The in vivo activity of Bu-2231 complex was evaluated in experimental mice infections against S. aureus Smith and E. coli NIHJ. Bleomycin was tested comparatively as a reference antibiotic.
The in vivo activty of the individual components of Bu-2231 in each of the copper-free and copper complex forms was also determined in E. coli infection.

C. krusei IAM 4489 = assay: MIC by two-fold agar dilution; type: cell-based; details: Ck-1 C. krusei IAM 4489; sabouraud agar; unit assumed
T. mentagrophytes D-155 = assay: MIC by two-fold agar dilution; type: cell-based; details: Tm-1 T. mentagrophytes D-155; sabouraud agar; unit assumed
E. coli A20683 = assay: MIC by two-fold agar dilution; type: cell-based; details: Mueller-Hinton agar, unit assumed
E. coli NIHJ [2] = assay: MIC by two-fold agar dilution; type: cell-based; details: Mueller-Hinton agar, unit assumed
C. albicans IAM 4888 = assay: MIC by two-fold agar dilution; type: cell-based; details: Ca-1 C. albicans IAM 4888; sabouraud agar; unit assumed
S. aureus Smith = assay: In vivo activity in experimental mice infection; details: Table 11
Experimental: as §1

Mycobacterium 607, D46 = assay: MIC by two-fold agar dilution; type: cell-based; details: Medium #1001, unit assumed
P. aeruginosa A20741 = assay: MIC by two-fold agar dilution; type: cell-based; details: Mueller-Hinton agar, unit assumed
[3] = tested on: Walker 256 carcinosarcoma in ascitic form; details: for Average Weight Change: recorded Day 5; for Survivors Day 44: survivors considered cured; for Survivors Day 5: toxicity evaluation;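 for all read-outs here: female SD rats bearing intraperitoneally implanted ascites tumor cells, treated ip once a day for 8 days beginning on Day 1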
S. aureus BX-1633,A9606 = assay: MIC by two-fold agar dilution; type: cell-based; details: Mueller-Hinton agar, unit assumed
P. stuartii A20894 = assay: MIC by two-fold agar dilution; type: cell-based; details: Mueller-Hinton agar, unit assumed
Lewis Lung carcinoma = details: Exp. #55; for Survivors Day 5: toxicity evaluation
Mycobacterium 607, D87 = assay: MIC by two-fold agar dilution; type: cell-based; details: Medium #1001, unit assumed
E. coli K-12 A9632 = assay: MIC by two-fold agar dilution; type: cell-based; details: Mueller-Hinton agar, unit assumed
Mycobacterium phlei, D88 = assay: MIC by two-fold agar dilution; type: cell-based; details: Medium #1001, unit assumed
T. asteroides = assay: MIC by two-fold agar dilution; type: cell-based; details: Ta-1 T. asteroides; sabouraud agar; unit assumed
E. coli Juhl A15119 = assay: MIC by two-fold agar dilution; type: cell-based; details: Mueller-Hinton agar, unit assumed
S. marcescens A21235 = assay: MIC by two-fold agar dilution; type: cell-based; details: Mueller-Hinton agar, unit assumed
C. krusei #96 A15052 = assay: MIC by two-fold agar dilution; type: cell-based; details: Ck-2 C. krusei #96 A15052; sabouraud agar; unit assumed
E. coli A20665 = assay: MIC by two-fold agar dilution; type: cell-based; details: Mueller-Hinton agar, unit assumed
[4] = tested on: F. moniliforme NRRL A2284; assay: MIC by two-fold agar dilution; type: cell-based; details: Fm-1 F. moniliforme NRRL A2284; sabouraud agar; unit assumed
S. lutea PCI-1001 = assay: MIC by two-fold agar dilution; type: cell-based; details: Mueller-Hinton agar, unit assumed
B. sphaericus #122 = assay: MIC by two-fold agar dilution; type: cell-based; details: Mueller-Hinton agar, unit assumed
S. aureus 209P, R4 = assay: MIC by two-fold agar dilution; type: cell-based; details: Mueller-Hinton agar, unit assumed
Experimental: The minimum inhibitory concentrations (MIC) of Bu-2231 A and B were determined against a wide variety of bacteria and fungi by the two-fold agar dilution method. Mueller-Hinton agar medium was used for the determination of bacterial MIC's (gram-positive and gram-negative), Medium #1001 [Glycerol (3%). Na-glutamate (0.3%), peptone (0.2%), Na2 HPO4 (0.31%), KH2 PO4 (0.1%), ammonium citrate (0.005%), MgSO4.7H2 O (0.001%), agar (1.5%)] for acid-fast bacteria and sabouraud agar for fungi. The results are shown in Tables 9 and 10 comparatively with bleomycin and phleomycin. The antibacterial and antifungal activities of Bu-2231 A and B are much higher than those of the reference antibiotics.

[5] = mice, single subcutaneous injection, 16 days
Experimental: The acute toxicity of copper-free Bu-2231 A and B was determined in mice by a single subcutaneous injection. Groups of 3 mice were used for each dose level and the body weight was recorded for 16 days.

[6] = Exp. #5439, 160 mcg/kg/day ip once daily for 8 days
[7] = Exp. #5439, 640 mcg/kg/day ip once daily for 8 days
[8] = Exp. #5439, 2560 mcg/kg/day ip once daily for 8 days
[9] = 1 mg/kg/day ip once daily for 9 days
[10] = 2 mg/kg/day ip once daily for 9 days
[11] = 4 mg/kg/day ip once daily for 9 days
[12] = 8 mg/kg/day ip once daily for 9 days

Bleomycin [reference compound]
PD50 (median protective dose) (E. coli NIHJ [1]; Table 11 second part, E. coli NIHJ infection, mice, sc): 2.55 mg/kg | In vivo activity, E. coli NIHJ infection (x/5 mice) (E. coli NIHJ [1]; Table 11 second part, dose (sc) 0.13 mg/kg): 0/5 | In vivo activity, E. coli NIHJ infection (x/5 mice) (E. coli NIHJ [1]; Table 11 second part, dose (sc) 0.5 mg/kg): 1/5 | In vivo activity, E. coli NIHJ infection (x/5 mice) (E. coli NIHJ [1]; Table 11 second part, dose (sc) 2 mg/kg): 1/5 | In vivo activity, E. coli NIHJ infection (x/5 mice) (E. coli NIHJ [1]; Table 11 second part, dose (sc) 8 mg/kg): 5/5 | MIC (C. krusei IAM 4489): 12.5 µg/mL | MIC (T. mentagrophytes D-155): > 100 µg/mL | MIC (E. coli A20683): > 100 µg/mL | MIC (E. coli NIHJ [2]): 0.8 µg/mL | MIC (C. albicans IAM 4888): 12.5 µg/mL | PD50 (median protective dose) (S. aureus Smith; S. aureus Smith infection, mice, sc): 2.5 mg/kg | In vivo activity vs. S. aureus Smith infection (x/5 mice) (S. aureus Smith; dose (sc) 0.13 mg/kg): 0/5 | In vivo activity vs. S. aureus Smith infection (x/5 mice) (S. aureus Smith; dose (sc) 0.5 mg/kg): 1/5 | In vivo activity vs. S. aureus Smith infection (x/5 mice) (S. aureus Smith; dose (sc) 2 mg/kg): 2/5 | In vivo activity vs. S. aureus Smith infection (x/5 mice) (S. aureus Smith; dose (sc) 8 mg/kg): 4/5 | MIC (Mycobacterium 607, D46): 0.2 µg/mL | MIC (P. aeruginosa A20741): 12.5 µg/mL | Effect MST %T/C [3, 6]: 111% | MST Days [3, 6]: 10.0 days | Average Weight Change ([3]; Exp. #5439, 160 mcg/kg/day): +11 g. | Survivors Day 44 ([3]; Exp. #5439, 160 mcg/kg/day): 0/6 | Survivors Day 5 ([3]; Exp. #5439, 160 mcg/kg/day): 6/6 | Effect MST %T/C [3, 7]: 194% | MST Days [3, 7]: 17.5 days | Survivors Day 44 ([3]; Exp. #5439, 640 mcg/kg/day): 1/6 | Survivors Day 5 ([3]; Exp. #5439, 640 mcg/kg/day): 6/6 | Effect MST %T/C [3, 8]: > 489% | MST Days [3, 8]: > 44.0 days | Average Weight Change ([3]; Exp. #5439, 2560 mcg/kg/day): +10 g. | Survivors Day 44 ([3]; Exp. #5439, 2560 mcg/kg/day): 4/6 | Survivors Day 5 ([3]; Exp. #5439, 2560 mcg/kg/day): 6/6 | Effect MST %T/C ([3]; Exp. #5501, 160 mcg/kg/day ip once daily for 8 days): 157% | MST Days ([3]; Exp. #5501, 160 mcg/kg/day ip once daily for 8 days, Bu-2231 A and B as copper-free formate salts): 11.0 days | Survivors Day 5 ([3]; Exp. #5501, 160 mcg/kg/day): 6/6 | Effect MST %T/C ([3]; Exp. #5501, 640 mcg/kg/day ip once daily for 8 days): 179% | MST Days ([3]; Exp. #5501, 640 mcg/kg/day ip once daily for 8 days, Bu-2231 A and B as copper-free formate salts): 12.5 days | Survivors Day 5 ([3]; Exp. #5501, 640 mcg/kg/day): 6/6 | minimum effective dose (MED) ([3]; Table I, Walker 256 ascitic tumor): 0.64 mg/kg | MIC (S. aureus BX-1633,A9606): 6.3 µg/mL | MIC (P. stuartii A20894): 3.1 µg/mL | Effect MST %T/C (Lewis Lung carcinoma; [9]): 109% | MST Days (Lewis Lung carcinoma; [9]): 24.0 days | Survivors Day 5 (Lewis Lung carcinoma; 1 mg/kg/day): 6/6 | Effect MST %T/C (Lewis Lung carcinoma; [10]): 109% | MST Days (Lewis Lung carcinoma; [10]): 24.0 days | Survivors Day 5 (Lewis Lung carcinoma; 2 mg/kg/day): 6/6 | Effect MST %T/C (Lewis Lung carcinoma; [11]): 57% | MST Days (Lewis Lung carcinoma; [11]): 12.5 days | Survivors Day 5 (Lewis Lung carcinoma; 4 mg/kg/day): 6/6 | Effect MST %T/C (Lewis Lung carcinoma; [12]): 48% | MST Days (Lewis Lung carcinoma; [12]): 10.5 days | Survivors Day 5 (Lewis Lung carcinoma; 8 mg/kg/day): 6/6 | MIC (Mycobacterium 607, D87): 0.8 µg/mL | MIC (E. coli K-12 A9632): 0.8 µg/mL | MIC (Mycobacterium phlei, D88): 0.2 µg/mL | MIC (T. asteroides): > 100 µg/mL | MIC (E. coli Juhl A15119): 1.6 µg/mL | MIC (S. marcescens A21235): 100 µg/mL | MIC (C. krusei #96 A15052): 3.1 µg/mL | MIC (E. coli A20665): 0.2 µg/mL | MIC [4]: > 100 µg/mL | MIC (S. lutea PCI-1001): 100 µg/mL | MIC (B. sphaericus #122): 6.3 µg/mL

Cc1c(N)nc([C@H](CC(N)=O)NC[C@H](N)C(N)=O)nc1C(=O)N[C@H](C(=O)N[C@H](C)[C@@H](O)CC(=O)N[C@H](C(=O)NC(O[C@@H]1O[C@@H](C)[C@@H](N)[C@@H](O)[C@H]1O)C(O)c1nc(-c2nc(C(=O)NCCCC(N)CC(=O)NCCCNCCCCN)cs2)cs1)[C@@H](C)O)[C@H](O[C@@H]1O[C@@H](CO)[C@@H](O)[C@H](O)[C@@H]1O[C@H]1O[C@H](CO)[C@@H](O)[C@H](OC(N)=O)[C@@H]1O)c1c[nH]cn1 (stereo partly shown) [Bu-2231 A Cu-free]
PD50 (E. coli NIHJ [1]; Table 12, E. coli NIHJ infection, mice, sc): 0.024 mg/kg | In vivo activity vs. E. coli NIHJ infection (x/5 mice) (E. coli NIHJ [1]; Table 12, dose (sc) 0.008): 1/5 | In vivo activity vs. E. coli NIHJ infection (x/5 mice) (E. coli NIHJ [1]; Table 12, dose (sc) 0.03): 3/5 | In vivo activity vs. E. coli NIHJ infection (x/5 mice) (E. coli NIHJ [1]; Table 12, dose (sc) 0.13): 5/5 | In vivo activity vs. E. coli NIHJ infection (x/5 mice) (E. coli NIHJ [1]; Table 12, dose (sc) 0.5): 5/5 | In vivo activity vs. E. coli NIHJ infection (x/5 mice) (E. coli NIHJ [1]; Table 12, dose (sc) 2): 5/5 | MIC (C. krusei IAM 4489): 0.8 µg/mL (≈ 0.462 µM) | MIC (T. mentagrophytes D-155): 12.5 µg/mL (≈ 7.22 µM) | MIC (S. aureus 209P, R4): 0.4 µg/mL (≈ 0.231 µM) | MIC (E. coli A20683): 6.3 µg/mL (≈ 3.64 µM) | MIC (E. coli NIHJ [2]): 0.025 µg/mL (≈ 0.0144 µM) | MIC (C. albicans IAM 4888): 0.8 µg/mL (≈ 0.462 µM) | MIC (Mycobacterium 607, D46): 0.1 µg/mL (≈ 0.0577 µM) | MIC (P. aeruginosa A20741): 0.2 µg/mL (≈ 0.115 µM) | MIC (S. aureus BX-1633,A9606): 0.2 µg/mL (≈ 0.115 µM) | MIC (P. stuartii A20894): 0.4 µg/mL (≈ 0.231 µM) | MIC (Mycobacterium 607, D87): 0.2 µg/mL (≈ 0.115 µM) | MIC (E. coli K-12 A9632): 0.05 µg/mL (≈ 0.0289 µM) | MIC (Mycobacterium phlei, D88): 0.05 µg/mL (≈ 0.0289 µM) | MIC (T. asteroides): 3.1 µg/mL (≈ 1.79 µM) | MIC (E. coli Juhl A15119): 0.1 µg/mL (≈ 0.0577 µM) | MIC (S. marcescens A21235): 0.2 µg/mL (≈ 0.115 µM) | MIC (C. krusei #96 A15052): 0.8 µg/mL (≈ 0.462 µM) | MIC (E. coli A20665): 0.05 µg/mL (≈ 0.0289 µM) | MIC [4]: 0.8 µg/mL (≈ 0.462 µM) | LD50 [5]: 28 mg/kg | MIC (S. lutea PCI-1001): 0.2 µg/mL (≈ 0.115 µM) | MIC (B. sphaericus #122): < 0.0063 µg/mL
